Measurements published in ChEMBL document CHEMBL1201862, “PubChem BioAssay data set” (2004).
Where “and” joins values, the source holds several entries; their conditions need not be identical. Identical values can stand only once.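 Results reflect a 48-hour exposure of cells in 96-well plates to compound at five concentrations. The concentration for 50% growth inhibition is given as GI50.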 Calls of active or inactive are those of the source. Cut-off read from the data, not from the text of the source: active = GI50 up to about 1.1 µM and inactive = higher.

Assays:
Assay in all cases: growth of human tumour cells (NCI), 48 h
A549 = tested on: A549
U-251 = tested on: U-251
ACHN = tested on: ACHN
K562 = tested on: K562
OVCAR-5 = tested on: OVCAR-5
786-0 = tested on: 786-0
NCI-H460 = tested on: NCI-H460
SK-MEL-2 = tested on: SK-MEL-2
SK-MEL-28 = tested on: SK-MEL-28
RPMI-8226 = tested on: RPMI-8226
MCF7 = tested on: MCF7
T47D = tested on: T47D
CAKI-1 = tested on: CAKI-1
SNB-75 = tested on: SNB-75
SF-268 = tested on: SF-268
HOP-62 = tested on: HOP-62
RXF 393 = tested on: RXF 393
NCI/ADR-RES = tested on: NCI/ADR-RES
SR = tested on: SR
OVCAR-4 = tested on: OVCAR-4
SK-MEL-5 = tested on: SK-MEL-5
SW-620 = tested on: SW-620
SK-OV-3 = tested on: SK-OV-3
NCI-H23 = tested on: NCI-H23
MDA-N = tested on: MDA-N
HT-29 = tested on: HT-29
PC-3 = tested on: PC-3
HOP-92 = tested on: HOP-92
UACC-257 = tested on: UACC-257
OVCAR-8 = tested on: OVCAR-8
HCC 2998 = tested on: HCC 2998
SNB-19 = tested on: SNB-19
UO-31 = tested on: UO-31
MOLT-4 = tested on: MOLT-4
HCT-116 = tested on: HCT-116
LOX IMVI = tested on: LOX IMVI
Hs-578T = tested on: Hs-578T
COLO 205 = tested on: COLO 205
SF-295 = tested on: SF-295
A498 = tested on: A498
SN12C = tested on: SN12C
NCI-H522 = tested on: NCI-H522
NCI-H226 = tested on: NCI-H226
DU-145 = tested on: DU-145
TK-10 = tested on: TK-10
CCRF-CEM = tested on: CCRF-CEM
KM12 = tested on: KM12
SF-539 = tested on: SF-539
OVCAR-3 = tested on: OVCAR-3
HCT-15 = tested on: HCT-15
HL-60 = tested on: HL-60
Malme-3M = tested on: Malme-3M
MDA-MB-435 = tested on: MDA-MB-435

O=CC(O)C(O)C(O)C(O)COP(=O)(O)Cc1ccccc1 (stereo unspecified)
GI50 (A549): > 10 µM (inactive)
GI50 (U-251): > 10 µM (inactive)
GI50 (ACHN): > 10 µM (inactive)
GI50 (K562): > 10 µM (inactive)
GI50 (OVCAR-5): > 10 µM (inactive)
GI50 (786-0): > 10 µM (inactive)
GI50 (NCI-H460): > 10 µM (inactive)
GI50 (SK-MEL-2): > 10 µM (inactive)
GI50 (SK-MEL-28): > 10 µM (inactive)
GI50 (RPMI-8226): > 10 µM (inactive)
GI50 (MCF7): > 10 µM (inactive)
GI50 (T47D): > 10 µM (inactive)
GI50 (CAKI-1): > 10 µM (inactive)
GI50 (SNB-75): > 10 µM (inactive)
GI50 (SF-268): > 10 µM (inactive)
GI50 (HOP-62): > 10 µM (inactive)
GI50 (RXF 393): > 10 µM (inactive)
GI50 (NCI/ADR-RES): > 10 µM (inactive)
GI50 (SR): > 10 µM (inactive)
GI50 (OVCAR-4): > 10 µM (inactive)
GI50 (SK-MEL-5): > 10 µM (inactive)
GI50 (SW-620): > 10 µM (inactive)
GI50 (SK-OV-3): > 10 µM (inactive)
GI50 (NCI-H23): > 10 µM (inactive)

Cc1ccc(S(=O)(=O)NCCSCCSCCNS(=O)(=O)c2ccc(C)cc2)cc1
GI50 (A549): 30.5 µM (inactive)
GI50 (U-251): 4.6 µM (inactive)
GI50 (MDA-N): 56 µM (inactive)
GI50 (HT-29): 28.6 µM (inactive)
GI50 (PC-3): 22.6 µM (inactive)
GI50 (ACHN): 48.6 µM (inactive)
GI50 (HOP-92): 22 µM (inactive)
GI50 (K562): 48.6 µM (inactive)
GI50 (NCI-H460): 25.4 µM (inactive)
GI50 (UACC-257): 34.4 µM (inactive)
GI50 (OVCAR-8): 47.2 µM (inactive)
GI50 (HCC 2998): 39.4 µM (inactive)
GI50 (SNB-19): 63.4 µM (inactive)
GI50 (UO-31): 34.1 µM (inactive)
GI50 (MOLT-4): 34 µM (inactive)
GI50 (HCT-116): 34.7 µM (inactive)
GI50 (SK-MEL-28): > 100 µM (inactive)
GI50 (LOX IMVI): 25.4 µM (inactive)
GI50 (Hs-578T): 47.2 µM (inactive)
GI50 (MCF7): 38.9 µM (inactive)
GI50 (COLO 205): 19.4 µM (inactive)
GI50 (SF-295): 45.8 µM (inactive)
GI50 (A498): 10 µM (inactive)
GI50 (SN12C): 47.4 µM (inactive)
GI50 (SNB-75): 20.8 µM (inactive)
GI50 (NCI-H522): 62.5 µM (inactive)
GI50 (NCI-H226): 49 µM (inactive)
GI50 (SF-268): 24 µM (inactive)
GI50 (RXF 393): 56.2 µM (inactive)
GI50 (NCI/ADR-RES): 24 µM (inactive)
GI50 (SR): 37.2 µM (inactive)
GI50 (OVCAR-4): 34.8 µM (inactive)
GI50 (SK-MEL-5): 4.7 µM (inactive)
GI50 (DU-145): 51.2 µM (inactive)
GI50 (TK-10): 53.2 µM (inactive)
GI50 (SW-620): 44.6 µM (inactive)
GI50 (SK-OV-3): 18.4 µM (inactive)
GI50 (CCRF-CEM): 36.9 µM (inactive)
GI50 (KM12): 25.6 µM (inactive)

CN(C)c1ccc(/C=C/c2sc3ccccc3[n+]2C)cc1
GI50 (SF-539): 3.18 µM (inactive) and 4.18 µM (inactive)
GI50 (A549): 2.2 µM (inactive) and 3.82 µM (inactive)
GI50 (OVCAR-3): 550 nM (active) and 501 nM (active)
GI50 (HCT-15): 4.75 µM and 9.27 µM
GI50 (MDA-N): 1.16 µM (inactive)
GI50 (PC-3): 1.09 µM (active) and 838 nM (active)
GI50 (ACHN): 1.46 µM (inactive) and 2.2 µM (inactive)
GI50 (HOP-92): 3.65 µM (inactive) and 1.85 µM (inactive)
GI50 (OVCAR-5): 12.7 µM (inactive) and 10.3 µM (inactive)
GI50 (786-0): 1.82 µM (inactive) and 1.61 µM (inactive)
GI50 (HL-60): 180 nM (active) and 348 nM (active)
GI50 (UACC-257): 1.82 µM (inactive) and 1.6 µM (inactive)
GI50 (SK-MEL-2): 2.82 µM (inactive) and 2.29 µM (inactive)
GI50 (SNB-19): 2.09 µM (inactive) and 1.99 µM (inactive)
GI50 (MOLT-4): 270 nM (active) and 238 nM (active)
GI50 (SK-MEL-28): 1.85 µM (inactive) and 3.44 µM (inactive)
GI50 (Hs-578T): 4 µM (inactive) and 7.62 µM (inactive)
GI50 (T47D): 2.47 µM (inactive) and 4.05 µM (inactive)
GI50 (SF-295): 3.29 µM (inactive) and 6.35 µM (inactive)
GI50 (CAKI-1): 2.52 µM (inactive) and 3.33 µM (inactive)
GI50 (A498): 14.9 µM (inactive) and 12.6 µM (inactive)
GI50 (NCI-H522): 1.93 µM (inactive) and 1.58 µM (inactive)
GI50 (NCI-H226): 3.71 µM (inactive) and 2.62 µM (inactive)
GI50 (SF-268): 3.29 µM (inactive) and 3.4 µM (inactive)
GI50 (NCI/ADR-RES): 36.9 µM (inactive) and > 57 µM (inactive)
GI50 (OVCAR-4): 2.62 µM (inactive) and 2.71 µM (inactive)
GI50 (SK-MEL-5): 1.09 µM (active) and 1.7 µM (inactive)
GI50 (TK-10): 5.65 µM (inactive) and 3.37 µM (inactive)
GI50 (Malme-3M): 1.54 µM (inactive) and 1.96 µM (inactive)
GI50 (SW-620): 433 nM (active) and 427 nM (active)
GI50 (MDA-MB-435): 813 nM (active) and 879 nM (active)
GI50 (SK-OV-3): 4.56 µM (inactive)
GI50 (NCI-H23): 1.07 µM (active) and 743 nM (active)
